Values of other authors, collected in patent US20120201886A1, “Coated Extended Release Pharmaceutical Compositions Containing Paliperidone” (MICRO LABS LIMITED, priority 2010, published 2012).

- solubility in 0.1 N hydrochloric acid (0.1 N hydrochloric acid): soluble
- solubility in methanol (methanol): soluble
- solubility in methylene chloride (methylene chloride): freely soluble
- solubility in water (water): practically insoluble
SMILES: Cc1nc2n(c(=O)c1CCN1CCC(c3noc4cc(F)ccc34)CC1)CCCC2O (racemic) [Paliperidone, (RS)-3-[2-[4-(6-fluorobenzo[d]isoxazol-3-yl)-1-piperidyl]ethyl]-7-hydroxy-4-methyl-1,5-diazabicyclo[4.4.0]deca-3,5-dien-2-one]
